Results reported in patent publication US20210292304A1 (HINOVA PHARMACEUTICALS INC., priority 2018, published 2021).

Target: T1, CYP2C8 (Homo sapiens, UniProt P10632)
T1 sequence (P10632 1-490): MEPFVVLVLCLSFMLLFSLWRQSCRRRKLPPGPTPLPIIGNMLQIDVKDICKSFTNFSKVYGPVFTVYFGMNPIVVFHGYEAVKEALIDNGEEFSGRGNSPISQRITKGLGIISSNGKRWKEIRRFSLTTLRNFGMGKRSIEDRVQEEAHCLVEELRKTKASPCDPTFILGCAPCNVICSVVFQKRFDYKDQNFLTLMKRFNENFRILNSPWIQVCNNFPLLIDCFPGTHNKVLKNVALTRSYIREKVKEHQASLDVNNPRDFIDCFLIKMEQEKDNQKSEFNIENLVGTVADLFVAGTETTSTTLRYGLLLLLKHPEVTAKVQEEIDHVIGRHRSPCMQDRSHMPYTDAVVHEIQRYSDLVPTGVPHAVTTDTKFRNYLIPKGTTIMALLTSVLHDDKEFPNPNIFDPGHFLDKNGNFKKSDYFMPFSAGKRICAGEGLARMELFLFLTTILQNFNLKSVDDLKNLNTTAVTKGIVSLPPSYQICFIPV
Test: Metabolic stability in recombinant human CYP2C8 metabolic enzyme
Assay type: in vitro ADME
Conditions: CYP subtype 2C8, test concentration 2 (M); for half-life at 2 µM: human, recombinant CYP2C8, pH 7.4, read-out: Half-life T1/2
Experimental: 1) Na2HPO4, KH2PO4, and pure water were used to prepare phosphate buffer (100 mM, pH 7.4);
2) Test compound and reference compound were dissolved in acetonitrile to obtain a working solution (200 M);
3) NADPH solution (10 mM) was prepared with NADPH and phosphate buffer (100 mM, pH 7.4);
4) The stock solution of recombinant CYP2C8 enzyme was diluted to […] with phosphate buffer (100 mM, pH 7.4);
5) The working solution of test compound or reference compound Amitriptyline was added to CYP2C8 solution, and the concentration of compound was 2 M, to which was added NADPH solution (10 mM) to initiate a metabolic reaction. 30 L incubation solution of metabolic reaction was collected at 0, 5, 10, 15, 25 minutes, and transferred to a quenching plate to quench with 120 L acetonitrile (including internal standard);
6) The sample was centrifuged at 4° C. for 60 min to precipitate the protein. The supernatant was collected and transferred to a 96-well plate, then diluted one times with pure water, and subjected to LC-MS/MS analysis;
7) The data analysis and calculation were similar to experimental example 2.

Compound	Clearance rate CLint [μL/min/pmol CYP450]	Percentage of residual substances after 25 minutes [%]	half-life at 2 µM [h]
[2H]C([2H])([2H])C([2H])(c1cc(Oc2c(Cl)cc(-n3nc(C#N)c(=O)[nH]c3=O)cc2Cl)n[nH]c1=O)C([2H])([2H])[2H] [Compound 2]	0.08	80.87	1.51
[2H]c1c(Oc2c(Cl)cc(-n3nc(C#N)c(=O)[nH]c3=O)cc2Cl)n[nH]c(=O)c1C([2H])(C([2H])([2H])[2H])C([2H])([2H])[2H] [Compound 10, 2-(3,5-dichloro-4-((4-deuterio-5-(heptadeuteroisopropyl)-6-oxo-1,6-dihydro-pyridazin3-yl)oxy)phenyl)-3,5-dioxo-2,3,4,5-tetrahydro-1,2,4-triazine-6-carbonitrile]	0.07	81.60	1.6
[2H]c1c(Oc2c(Cl)cc(-n3nc(C#N)c(=O)[nH]c3=O)cc2Cl)n[nH]c(=O)c1C(C([2H])([2H])[2H])C([2H])([2H])[2H] [Compound 11, 2-(3,5-dichloro-4-((4-deuterio-5-(1,1,1,3,3,3-hexadeuteropropan-2-yl)-6-oxo-1,6-dihydro-pyridazin-3-yl)oxy)phenyl)-3,5-dioxo-2,3,4,5-tetrahydro-1,2,4-triazine-6-carbonitrile]	0.06	85.57	1.83
